{"source": "patent US20260373497A1", "about": "“MOLECULAR MACHINES STIMULATE INTERCELLULAR CALCIUM WAVES AND CAUSE MUSCLE CONTRACTION” (William Marsh Rice University, priority 2022, published 2026)", "key": {"C2C12 myoblasts [1]": {"system": "C2C12 myoblasts", "test": "MM-induced calcium release in C2C12 cells (Fluo-4)", "type": "cell-based, mouse", "conditions": "MM 1, 1 s instead of 500 ms"}, "C2C12 myoblasts [2]": {"system": "C2C12 myoblasts", "test": "Localization of MM 1 in C2C12 cells", "type": "cell-based, mouse", "conditions": "45 minutes of incubation"}, "[3]": {"system": "primary rat cardiomyocytes", "test": "Spiking, beating and contraction of primary cardiomyocytes after MM stimulation", "type": "cell-based"}, "HEK293 cells": {"system": "HEK293 cells", "test": "Assessment of stimulation toxicity (apoptosis, necrosis, PI uptake)", "type": "cell-based", "description": "Assessment of Stimulation Toxicity: The purpose was to use MM to interact with cell signaling. However, several previous studies by the group have explored the same or similar molecules for inducing cell permeabilization and death (Santos et al., 2022; Alaya-Orozco et al., 2020; Gunasekera et al., 2020). These studies used minutes-long light doses rather than the millisecond-scale doses employed in this work. Nevertheless, assessing the effects of MM stimulation on cell viability remains imperative.\nPotentially toxic effects of MM stimulation on cells were assessed in several ways. First, qualitative analysis of stimulated cells can be used to assess toxicity. For these experiments, HEK293 cells were treated with MM 1 and prepared as was typical for stimulation experiments.\nSecond, once a suitable window of stimulation power had been identified, the effects of stimulation on cells were compared to healthy cells and several positive controls representing mechanisms of cell death. For these experiments, cells were loaded with Fluo-4, CellMask cell membrane labeling dye, and MM 1 and were imaged in the presence of cell-impermeant viability dye propidium iodide (PI; 1 μg mL^−1). The onset of apoptotic cell death in imaged colonies was confirmed by the observation of pyknosis (cell shrinkage) (Hajnoczky et al., 2003), the uptake of small amounts of PI, and the enhanced fluorescence of Fluo-4 in the colony (FIG. 8A).\nFinally, to account for potential aftereffects of stimulation, isolated HEK293 colonies were grew in a grid pattern by photolithographically patterning polydimethylsiloxane onto Ibidi imaging dishes. Colonies were seeded with 25,000 cells cm^−2. Two days after seeding, cells were treated with MM 1 and Fluo-4 using typical protocols (see Example 6), and 10 selected cells were stimulated in selected colonies. After 24 h, these colonies were imaged again in the presence of 1 μg mL^−1 PI to observe any effects of MM stimulation on growth, cell stress, or viability."}, "HeLa cells": {"system": "HeLa cells", "test": "MM-induced calcium responses in HeLa cells", "type": "cell-based", "conditions": "400 nm, 250 ms, 3.2×10^2 W cm^−2", "description": "FIGS. 12A & 12B—ICW in HeLa cells after stimulation with MM 1 and light. (a) Confocal images of HeLa cells treated with MM 1 (blue) and Fluo-4 calcium tracking dye (green). The white circle in the bottom-left image depicts the area to which light stimulus was delivered. Scale bar is 50 μm and applies to all images. (b) Fluo-4 fluorescence traces of HeLa cells treated with MM 1 and stimulated with 250 ms pulse of 400 nm light delivered to a 5 μm diameter circular region of interest at 3.2×10^2 W cm^−2 stimulation power.\n(§1) Cell Culture and Preparation of Cells for Microscopy: HEK293 cells were chosen as the principal model system due to their prevalence in electrophysiological interrogation. […] HEK293 cells, HeLa cells, and N2A cells were cultured in DMEM (10% FBS, 1% penicillin/streptomycin) and passaged at <90% confluence. […]\n(§2) In Vitro Imaging and Stimulation: Cells were loaded in a Nikon A1-Rsi confocal system mounted on a widefield Ti-E fluorescence microscope. […] Laser stimulation for in vitro experiments was performed with a 400 nm photodiode laser (Coherent OBIS™ LX SF) operating in a fluorescence-recovery-after-photobleaching (FRAP) experiment mode, delivering up to 6.4×10^2 W cm^−2 at sample level. […] Fluo-4 fluorescence was collected for 30 s before and 2 min after stimulation. […]"}, "N2A cells": {"system": "N2A cells", "test": "MM-induced calcium responses in N2A cells", "type": "cell-based", "conditions": "400 nm, 250 ms, 3.2×10^2 W cm^−2", "description": "FIGS. 11A & 11B—ICW in N2A cells after stimulation with MM 1 and light. (a) Confocal images of N2A cells treated with MM 1 (blue) and calcium tracking dye (Fluo-4; green). The white circle in the top-left image depicts the area to which stimulus was delivered. The scale bar is 50 μm and applies to all images. (b) Fluo-4 fluorescence traces of N2A cells treated with MM 1 and stimulated with 250 ms pulse of 400 nm light delivered to a 5 μm diameter circular region of interest at 3.2×10^2 W cm^−2 stimulation power.\nas §1, §2"}}, "note": "“Also recorded” adds a separate entry of the source."}
{"smiles": "CC1Cc2ccc3ccccc3c2C1=C1c2ccccc2Sc2cc(NCCN(C)C)ccc21", "note": "(stereo not shown) [MM 1]", "values": [{"measurement": "Calcium release at longer stimulation", "setting": "C2C12 myoblasts [1]", "value": "larger calcium release"}, {"measurement": "Cell permeation", "setting": "C2C12 myoblasts [2]", "value": "permeate through the cell membrane after 45 minutes of incubation"}, {"measurement": "Contraction / beating of cardiomyocytes", "setting": "[3]; 400 nm, 250 ms, 5.1×10^2 W cm^−2", "value": "local contraction in the stimulated cell; also recorded: periodic beating in the stimulated cell and surrounding cell"}, {"measurement": "Firing rate of cardiomyocytes", "setting": "[3]; MM 1 + light in presence of U-73 10 μM, P<0.0001", "value": "~ 0.8 spikes min^−1 cell^−1"}, {"measurement": "Spiking activity of cardiomyocytes", "setting": "[3]; MM 1 + light, absence of extracellular calcium", "value": "did not exhibit any spiking activity"}, {"measurement": "Firing rate of cardiomyocytes", "setting": "[3]; MM 1 + light, calcium-containing medium", "value": 5.1, "unit": "spikes min^−1 cell^−1"}, {"measurement": "Cell toxicity after typical stimulation", "setting": "HEK293 cells; MM 1 8 μM, 3.2×10^2 W cm^−2 for 250 ms", "value": "cells recovered from stimulation and showed no signs of apoptosis or necrosis"}, {"measurement": "Cell toxicity at reduced light dose", "setting": "HEK293 cells; MM 1, 3.2×10^2 W cm^−2 for 1 s, 30 min", "value": "strong calcium responses from cells without observable toxicity; also recorded: the calcium signal has returned to homeostatic levels, and the stimulated cell and surrounding cells display no apparent damage"}, {"measurement": "Cell toxicity at high light dose", "setting": "HEK293 cells; MM 1, 6.4×10^2 W cm^−2 for 4 s", "value": "membrane blebbing and calcium accumulation over a 30 min period, indicating cell death; also recorded: membrane blebbing and runaway calcium accumulation; also recorded: the calcium signal has not returned to homeostasis, and membrane blebbing is apparent"}, {"measurement": "PI uptake of stimulated colonies 24 h after stimulation", "setting": "HEK293 cells; MM 1, 10 cells stimulated per colony, 1 μg mL^−1 PI", "value": "indistinguishable from untreated colonies"}, {"measurement": "Necrotic cell death under UV/DAPI-filter LED", "setting": "HEK293 cells; MM 1, 395/25 nm, 166 mW cm^−2, 5 min", "value": "Necrotic cell death was observed"}, {"measurement": "Calcium responses induced by MM 1 actuation", "setting": "HeLa cells", "value": "also observed"}, {"measurement": "Calcium responses induced by MM 1 actuation", "setting": "N2A cells", "value": "also observed"}]}
